Assay results reported in ChEMBL document CHEMBL2311510, “A new single-photon emission computed tomography (SPECT) imaging agent for serotonin transporters: [(125)I]Flip-IDAM, (2-((2-((dimethylamino)methyl)-4-iodophenyl)thio)phenyl)methanol” (Bioorg Med Chem Lett, 2013).

Legend:
[1] = target: T1, Sodium-dependent serotonin transporter (Homo sapiens, UniProt P31645); test: biochemical; assay type: cell-based, LLC-PK1
Target sequence in this assay (P31645 whole entry): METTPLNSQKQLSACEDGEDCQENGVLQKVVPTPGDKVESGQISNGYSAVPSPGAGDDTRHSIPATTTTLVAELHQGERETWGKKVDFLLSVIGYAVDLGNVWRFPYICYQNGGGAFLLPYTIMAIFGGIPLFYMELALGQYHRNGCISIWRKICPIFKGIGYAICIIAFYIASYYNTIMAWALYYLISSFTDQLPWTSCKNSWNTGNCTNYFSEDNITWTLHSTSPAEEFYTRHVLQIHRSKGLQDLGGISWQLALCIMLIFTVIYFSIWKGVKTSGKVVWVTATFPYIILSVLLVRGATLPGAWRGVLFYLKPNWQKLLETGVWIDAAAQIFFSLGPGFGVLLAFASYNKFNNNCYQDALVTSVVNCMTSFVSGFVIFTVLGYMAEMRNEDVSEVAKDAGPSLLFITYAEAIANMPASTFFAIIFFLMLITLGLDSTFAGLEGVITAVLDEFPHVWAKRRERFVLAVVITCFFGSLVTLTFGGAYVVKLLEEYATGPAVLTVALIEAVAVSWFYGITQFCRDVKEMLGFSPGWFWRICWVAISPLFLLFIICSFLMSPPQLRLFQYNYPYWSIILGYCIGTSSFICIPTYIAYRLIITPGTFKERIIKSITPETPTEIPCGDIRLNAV
Description: Inhibition of [125I]IDAM uptake at SERT (unknown origin) expressed in LLC-PK1 cell membranes

[2] = target: T1, Sodium-dependent serotonin transporter; test: Potency index, ratio of Ki of Flip-ADAM to Ki of compound for SERT (unknown origin)
Target sequence in this assay (P31645 whole entry, looked up): as the sequence (P31645 whole entry) above

[3] = target: T1, Sodium-dependent serotonin transporter; test: Potency index, ratio of Ki of IDAM to Ki of compound for SERT (unknown origin)
Target sequence in this assay (P31645 whole entry, looked up): as the sequence (P31645 whole entry) above

[4] = target: T1, Sodium-dependent serotonin transporter; test: Inhibition of […] uptake at SERT (unknown origin) expressed in LLC-PK1 cell membranes; assay type: cell-based
Target sequence in this assay (P31645 whole entry): as above

[5] = target: T1, Sodium-dependent serotonin transporter; test: Binding affinity to SERT (unknown origin)
Target sequence in this assay (P31645 whole entry): as above

Nucleic Acid = test: Ratio of drug level in hypothalamus to cerebellum in rat measured 60 mins compound dose; assay type: ADME, tissue-based; conditions: in vivo, 1 h

| SMILES | Ki [1] [nM] | Ki [5] [nM] | further results |
| --- | --- | --- | --- |
| CN(C)Cc1cc(I)ccc1Sc1ccccc1CO | 0.03 | – | Ratio Ki [2]: 33; Ratio Ki [3]: 3 |
| CN(C)Cc1ccccc1Sc1ccc(I)cc1CO | – | – | Ki [4]: 0.1 nM |
| CN(C)Cc1cc(I)ccc1Sc1ccccc1N | 1 | – | – |
| O=C(OCCF)[C@H]1[C@@H](c2ccc(/C=C\I)cc2)C[C@H]2CC[C@H]1N2 | – | 0.08 | – |
| CN(C)Cc1ccccc1Sc1ccc([123I])cc1N | – | 0.013 | – |
| CN(C)Cc1ccccc1Sc1ccc([123I])cc1CO | – | 0.097 | Ratio (Nucleic Acid): 2.76 |
